Assay results published in US9420790B2, “Molecules that induce disease resistance and improve growth in plants” (The Regents of the University of California, priority 2013, dated 2016).
“Also recorded” adds a separate entry of the source.

Key:
[1] = system: Peronospora isolate Noco2; assay: Noco2 spore inhibition assay in soil-grown seedlings; format: in vivo, Hyaloperonospora arabidopsidis; conditions: for level of protection / defense-inducing activity against Noco2 / concentration giving significant protection against Noco2: dose-response; for level of protection / defense-inducing activity against Noco2: three-week old Col-0 (FIG. 3B); for concentration giving significant protection against Noco2: three-week old Col-0, infected 24 h after treatment, 7 dpi (FIG. 3B); for resistance to Noco2: 100 μM sprayed 1 h prior to pathogen challenge; for suppression of Noco2 spore formation / resistance to Noco2: 7 dpi; for HTC-triggered immunity to Noco2: 100 μM
Procedure: FIG. 2. Kinetic analysis of chemically-induced disease resistance. Experiments were conducted with three-week-old soil-grown Col-0 seedlings sprayed with 100 μM HTC, DCA, INA, or mock solution (1% DMSO) at the indicated times prior to being sprayed with 2×10^4 mL^−1Noco2 spores (2 ml per pot). Peronospora (Hyeloperonospora arabidopsidis) spores were counted 7 dpi (days post-infection). Mean and SE values were calculated from a minimum of three biological replicates and the average of those is shown above.
FIG. 3. Structure-activity analysis of HTC analogs. A. Chemical structures of DCA, HTC and tested HTC analogs. Chiral centers of the HTC skeleton are indicated by “1*” and “2*” in HTC. B. Noco2 spore inhibition assay. Three-week-old soil-grown Col-0 seedlings were spray-infected 24 h after treating with varying concentrations of each synthetic elicitor and then assayed at 7 dpi for spore growth. 100% inhibition=0 spores. […] The average of those three replicates is shown. Significant differences of compound-treated compared to mock-treated seedlings determined by Student's t-tests (p<0.05) are marked by colored four pointed stars.
(§1) FIG. 4. Analysis of HTC activity in defense mutant plants. A & B. RT-PCR analysis of CaBP22 transcript levels in Col-0 (wild-type) and mutant backgrounds 24 h after spraying 2-week-old seedlings with mock-solution (1% DMSO), 100 μM DCA, or HTC. RT-PCRs with ACTIN are shown as loading controls. […] C. Analysis of HTC activity in Col-0 or nahG background. Experiments were conducted with three-week-old soil-grown Col-0 or nahG seedlings sprayed with 100 μM HTC, 100 μM DCA, or mock-solution (1% DMSO) 24 h prior to infection with 2×10^4 virulent Noco2 spores ml^−1 (2 ml per pot). Spores were counted at 7 dpi. Mean and SE values were calculated from a minimum of three biological replicates and their averages of are shown.
We next tested whether HTC could induce pathogen resistance in soil-grown plants. […] To determine if HTC differs from other synthetic elicitors in the kinetics of defense induction, Col-0 seedlings were sprayed with 100 μM of INA, DCA, HTC, or mock, 1 h, 3 h, 1 d, 3 d, or 6 d prior to pathogen challenge.
We performed a dose-response analysis of inhibition of Noco2 spore development in three-week old Col-0 plants using the HTC analogs (FIG. 3B).
We also compared the biological activity of s-HTC to that of p-HTC by spraying a concentration gradient of both preparations on soil-grown Col-0 seedlings 24 h prior to challenge with Noco2.

[2] = system: CaBP22^−333::GUS expression; assay: CaBP22-333::GUS reporter assay, liquid-grown seedlings (saturation treatment); format: in vivo, Arabidopsis thaliana
Procedure: (§2) B. Trypan blue staining of CaBP22^−333 : :GUS seedlings incubated for 24 h in medium containing compounds at the indicated concentrations.
(§3) To quantify the bioactivity of HTC, we performed various assays with one week-old CaBP22^−333::GUS seedlings submerged in liquid growth medium containing HTC or mock-solution (saturation treatment). […] To examine if HTC induces phytotoxicity, we stained Col-0 seedlings after saturation treatment with trypan blue.
(§4) To determine which substituents or moieties of the HTC molecule are critical for its defense-inducing activity, seven commercially available HTC analogs were analyzed (FIG. 3A). We compared the ability of these compounds to induce GUS expression in saturation treated CaBP22^−333::GUS Arabidopsis seedlings to that of DCA and HTC. […] We also used trypan blue staining to examine HTC-analog-induced phytotoxicity.

[3] = system: Hyaloperonospora arabidopsidis (Peronospora); conditions: Arabidopsis; cited from earlier work
Arabidopsis roots = assay: Root length of Col-0 seedlings on 1/2 MS plates containing synthetic elicitor; format: in vivo, Arabidopsis thaliana; conditions: for enhancement of root length / root growth: HTC at 1 μM only, DCA and INA at various tested concentrations; for root growth at higher concentrations: higher doses, range tested 1 to 100 μM
Procedure: FIG. 5. Relative root length of Col-0 plants grown on synthetic elicitors. Col-0 seedlings were plated in square petri dishes on ½ MS medium containing 1, 10, 25, 50, 75 or 100 μM of HTC, DCA, INA, or the respective controls (solvent only). A. Roots of Col-0 seedlings grown on 1 uM HTC or control (0.01% DMSO) medium 14 days after germination. B. Average percent Col-0 root length grown on synthetic elicitors compared to Col-0 grown on control. Root length was measured at day 3, 5, 7, 11, and 14. Results are expressed as percentages of the average root length on the respective synthetic elicitor treatments compared to their controls. The average, standard error, and Student's t-test (p<0.05) were calculated from these values. Significant differences between synthetic elicitor-treated and control-treated plants are marked by a star above the corresponding data point. Y-axis represents relative root growth in the presence of synthetic elicitor. CSE: concentration of synthetic elicitor; dpg: days post germination.
We compared the ability of other synthetic elicitors to enhance growth, and performed root growth assays with INA, DCA, and HTC (FIG. 5B). Each synthetic elicitor was added to the solid media plates at concentrations ranging from 1 to 100 μM. The plates were placed upright in a growth chamber, and root lengths were measured at 3 d-intervals. To merge data sets, root length was expressed as a percentage of their value relative to the average of the mock (control) for that data set. Normalizing each root length to its control allowed all replicates to be combined together to calculate averages, standard errors, and perform statistical tests (FIG. 5B).

Pseudomonas syringae = conditions: Arabidopsis; cited from earlier work
CaBP22 transcript levels = assay: RT-PCR analysis of CaBP22 transcript levels in Col-0 and defense mutants; format: in vivo, Arabidopsis thaliana; conditions: for ability to induce CaBP22 expression: transgenic nahG line; for ability to induce CaBP22 expression / CaBP22 transcript accumulation: 100 μM
Procedure: as §1
To establish the mode-of-action of HTC, we performed reverse transcription (RT)-PCRs examining transcript levels of the defense marker gene CaBP22 in Col-0 and a set of mutant lines representing various defense signaling mechanisms. […] In the transgenic nahG line, which is compromised in the accumulation of salicylic acid (SA), the ability of HTC to induce CaBP22 expression was blocked, while that of DCA was not affected (FIGS. 4A and B).

Col-0 seedlings [4] = assay: Trypan blue staining for phytotoxicity (cell death) after saturation treatment; format: in vivo, Arabidopsis thaliana; conditions: for seedlings with cell death (trypan blue staining): treated for 24 h at 300 μM
Procedure: as §2, §3, §4

[5] = system: Tomato cv. Moneymaker seedlings; assay: Root length of plate-grown tomato seedlings; format: in vivo, Solanum lycopersicum; conditions: 1 μM
Procedure: (§5) FIG. 7. Relative root length and FW of tomato seedlings and shoots. Tomato cv. Moneymaker seedlings treated with HTC compared to seedlings treated with control (DMSO 0.01%). A. Moneymaker seedlings were plated in square petri dishes on ½ MS medium containing HTC. Root length was measured at day 2, 4, 6, and 8. Results are expressed as percentages of the average root length on 1 μM HTC or control. The average, standard error, and Student's t-test (p<0.05) were calculated from these values. Each time point represents at least 89 distinct root length measurements from at least three biological replicates. Y-axis represents percent of root growth in the presence of synthetic elicitor compared to controls. B. Moneymaker seeds (five seeds per pot with a minimum of 21 pots) were sown on soil drenched with 20 ml of the indicated concentrations of HTC or their respective control. Fresh weight (FW) of the above-ground plant tissues was measured at day 14. Results are expressed as percentages of the average weight of HTC treatments compared to those of the controls. The standard error and Student's t-test (p<0.01) were calculated from at least three biological replicates and the average is shown above. Significant differences between synthetic elicitor-treated and control-treated plants are marked by stars above the corresponding data points. […]

[6] = system: Tomato cv. Moneymaker seedlings; assay: Root drench assay, aerial fresh weight of soil-grown tomato; format: in vivo, Solanum lycopersicum; conditions: 10 μM single soil drench, day 14
Procedure: as §5

Col-0 seedlings [7] = assay: Fresh weight of aerial portions of soil-drenched Col-0 seedlings; format: in vivo, Arabidopsis thaliana; conditions: 1-100 μM soil drench, day 14
Procedure: FIG. 6. Relative weight of aerial portions of synthetic elicitor treated Col-0 seedlings compared to control (DMSO) treated seedlings. Col-0 seeds (15-20 seeds per pot) were sown on soil drenched with 20 mL of the indicated concentrations of HTC, INA, DCA, or the respective mock solutions. Fresh weight (FW) of the above-ground plant tissues was measured at day 14. Results are expressed as percentages of the average FW of the respective synthetic elicitor treated plants compared to that of mock-treated controls. The standard error and Student's t-test (p<0.05) were calculated from at least three biological replicates and averages are shown. Significant differences between synthetic elicitor-treated and control-treated plants are marked by a star above the corresponding data point. Y-axis represents percent of FW in the presence of synthetic elicitor compared to controls.
To determine whether the synthetic […] could increase the aerial weight of Arabidopsis, soil-sown-seedlings were drenched with synthetic elicitor in water at day 0 (FIG. 6). After 14 days, aerial portions of plants were cut off and their fresh weight measured. […] HTC thus has a hormesis-like effect in Arabidopsis roots, but generally increases the aerial fresh weight of Arabidopsis at the concentrations tested.

[8] = Col-0, 24 h after spraying 100 μM
[9] = wrky70-3 mutant, 24 h after spraying 100 μM
[10] = Col-0, 100 μM sprayed 24 h prior to infection
[11] = nahG, 100 μM sprayed 24 h prior to infection

Structure (SMILES)	level of protection / defense-inducing activity against Noco2 [1]	concentration giving significant protection against Noco2 [1]	enhancement of root length / root growth (Arabidopsis roots)	root growth at higher concentrations (Arabidopsis roots)	CaBP22 transcript levels (CaBP22 transcript levels; [8])	ability to induce CaBP22 expression (CaBP22 transcript levels)	CaBP22 transcript levels (CaBP22 transcript levels; [9])	seedlings with cell death (trypan blue staining) (Col-0 seedlings [4]) [%]	resistance to Noco2 [1]	suppression of Noco2 spore formation / resistance to Noco2 [1, 10]	suppression of Noco2 spore formation / resistance to Noco2 [1, 11]	other results
O=C(O)C1CSC(c2ccccc2O)N1 (stereo not drawn) [CMP140, 2-(2-hydroxy-phenyl)-thiazolidine-4-carboxilic acid]	less efficient defense inducer compared to HTC	at least 100 uM	–	–	–	–	–	–	–	–	–	efficiency of GUS induction among HTC analogs [2]: most efficient HTC analog
Nc1c(Cl)cc(Cl)cc1C(=O)O [DCA, 3-5-dicholoroanthranlilic acid, reference compound]	highest protection	10 µM	enhanced Arabidopsis root growth	strongly inhibited	induced an increase	not affected	not	100	full resistance	induced resistance; also recorded: significantly suppresses	induced resistance; also recorded: significantly suppresses	disease resistance [3]: fast, strong and transient disease resistance; disease resistance (Pseudomonas syringae): fast, strong and transient disease resistance
O=C(O)C1CSC(c2cc(Br)ccc2O)N1 (stereo not drawn) [HTC, 2-(5-bromo-2-hydroxy-phenyl)-thiazolidine-4-carboxylic acid]	highest protection; also recorded: most potent of the tested analogs	10 µM	enhanced the root length	reduced root growth; also recorded: strongly inhibited	induced an increase	blocked	not	100	–	able to do so; also recorded: significantly suppresses	did not observe significant reduction and not	change in root length ([5]; all analyzed time-points): significant increase in root length; root length relative to mock-treated plants ([5]; day 6): 136.1%; root length relative to control plates (Arabidopsis roots; 1 μM): up to 180%; reduction of length of roots (Arabidopsis roots; concentrations above 50 μM): ~80%; fresh weight of shoots relative to mock-treated plants [6]: 128.5%; fresh weight of shoots relative to mock-treated plants (Col-0 seedlings [7]): ~120%; CaBP22 transcript accumulation (CaBP22 transcript levels; pad4-1 mutant): reduced; CaBP22 transcript accumulation (CaBP22 transcript levels; sid2-2 mutant): reduced; CaBP22 transcript accumulation (CaBP22 transcript levels; wrky72-2 mutant): full HTC-induced CaBP22 transcript accumulation; cell death (trypan blue staining) (Col-0 seedlings [4]; lower concentrations that resulted in reporter activation (1-100 μM)): No cell death; HTC-triggered immunity to Noco2 ([1]; 6 dpt): not detectable; HTC-triggered immunity to Noco2 ([1]; 3 days post treatment (dpt)): reduced; efficacy of s-HTC versus p-HTC in reducing Noco2 spore counts ([1]; 20, 50, 100, and 200 μM sprayed on Col-0 24 h prior to challenge): No significant difference; concentration giving significantly reduced numbers of Noco2 spores (as low as) ([1]; Col-0 sprayed prior to infection, spores 7 dpi): 10 µM; concentration activating CaBP22-333::GUS expression (as low as) ([2]; within 24 h, one week-old seedlings): 1 µM
O=C(O)c1cc(Cl)nc(Cl)c1 [INA, reference compound]	–	–	enhanced Arabidopsis root growth	not	–	–	–	–	full resistance	–	–	–
O=C(O)C1CSCN1 (stereo not drawn) [T4CA, 4-carboxy-4-thiazolidinyl, reference compound]	did not result in significant immunity	–	–	–	–	–	–	–	–	–	–	–
